Test in all cases: NCI-60 cell line screen, 48 h
In test [1] the test system is LOX IMVI melanoma.
Test [2] deals with SF-295 CNS.
The test system of test [3] is SR leukemia.
The subject of test [4] is SN12C renal.
Test [5] has as its system MCF7 breast.
For test [6], the system named is COLO 205 colon.
The test system of test [7] is SK-MEL-28 melanoma.
The test system of test [8] is RXF 393 renal.
Test [9] deals with ACHN renal.
Test [10] relates to NCI-H522 lung.
In test [11] the test system is SF-268 CNS.
For test [12], the system named is TK-10 renal.
Test [13] relates to OVCAR-4 ovarian.
The test system of test [14] is HT29 colon.
Test [15] concerns HCT-116 colon.
Test [16] deals with NCI-H23 lung.
For test [17], the system named is OVCAR-3 ovarian.
Test [18] relates to T-47D breast.

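Compound exposure: 48 hours, 5 concentrations, 96-well plates. TGI marks complete inhibition of growth.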

In the case of `Brc1ccc(C2=NCSC(c3ccc(Br)cc3)=N2)cc1`, the TGI in test [1] is 70.9 µM; in test [2] it was above 100 µM; in test [3] it was 47.4 µM; in test [4] it was above 100 µM; in test [5] it was above 100 µM; in [6] it was above 100 µM. For the same compound, the TGI was above 100 µM in [7]; 44.3 µM in [8]; above 100 µM in [9]; 58.4 µM in test [10]; above 100 µM in [11]; 53.8 µM in test [12]. In addition, the TGI was above 100 µM in test [13], 86.3 µM in [14], 59.2 µM in test [15] and above 100 µM in test [16].

Take `COCCN(C(=O)c1ccccc1)C1CCC2(SCCS2)c2[nH]c3ccccc3c21` (stereo not given): the TGI in [1], in [2], in [17], in test [3], in test [4] and in test [5] was above 100 µM in each case. Besides, the TGI in [6] was above 100 µM; in test [7] it was above 100 µM; in test [8], 87.7 µM; in test [9], above 100 µM; in test [10], 98.8 µM; in [11], above 100 µM. The TGI in [12], in test [14], in test [15] and in test [16] was above 100 µM throughout.

For the compound `Cc1ccc(S(=O)(=O)n2cc(/C=C/C#N)c(-c3cn(S(=O)(=O)c4ccc(C)cc4)cc3-c3cn(S(=O)(=O)c4ccc(C)cc4)cc3/C=C/C#N)c2)cc1`, the TGI in [1], in [2], in test [17], in test [3], in [4] and in test [6] was above 100 µM in each case. In addition, the TGI in test [9], in [10], in test [11], in test [18], in [12] and in [13] was above 100 µM in each case. The TGI in test [14], in [15] and in [16] was above 100 µM each time.

As for `O=C(CC(NC(=O)OCc1ccccc1)C(=O)NC1Cc2ccccc2C1=O)OCc1ccccc1` (stereo not given), the TGI in test [2], in [17], in test [3], in test [4], in test [5] and in [7] was above 100 µM in each case. Further, the TGI in test [8], in test [9], in [10], in [11], in [12] and in test [14] was above 100 µM in each case. The same compound had a TGI in test [16] above 100 µM.

Consider `OCC(O)COCn1cc(Cn2ncc3c(SCc4ccccc4)ncnc32)nn1` (stereo not given), for which the TGI in test [1], in test [2], in [17], in test [4], in [5] and in [6] was above 100 µM each time. Besides, the TGI in test [7] was above 100 µM; in [9] it was above 100 µM; in test [10], 73 µM; in [11] it was above 100 µM; in test [18], above 100 µM; in [12], above 100 µM. Further, the TGI in [13], in test [14], in test [15] and in test [16] was above 100 µM throughout.

For `COc1ccc2c(-c3csc(-c4c[nH]c5ccc(Br)cc45)n3)c[nH]c2c1`, the TGI in test [1], in test [2], in test [17], in test [4], in test [5] and in test [6] was above 100 µM each time. Moreover, the TGI is above 100 µM in test [7]; 27.9 µM in test [8]; above 100 µM in test [9]; 92.6 µM in [10]; 73.4 µM in [11]; above 100 µM in test [18]. In addition, the TGI in [12], in test [13], in test [14], in [15] and in test [16] was above 100 µM each time.

Consider `COc1cc([C@@H]2c3cc4c(cc3[C@H](OC3OC5COC(c6ccco6)OC5C(O)C3O)C3COC(=O)[C@@H]32)OCO4)cc(OC)c1OC` (stereo not given in full), for which the TGI in test [1] is above 100 µM; in test [2] it was above 100 µM; in test [17], above 24.6 µM; in test [5] it was above 53.6 µM; in test [6], above 31.3 µM; in test [8], above 100 µM. Besides, the TGI was above 59.3 µM in test [9]; above 57.3 µM in [10]; above 100 µM in test [11]; above 100 µM in [18]; above 100 µM in test [12]; above 100 µM in test [13]. Moreover, the TGI in test [14] was above 100 µM; in test [15], above 100 µM; in [16] it was above 79.4 µM.

In the case of `COC(=O)C(=O)C(C(=O)C(=O)Nc1ccc(Cl)c(Cl)c1)c1nc2ccc(C(=O)c3ccccc3)cc2[nH]c1=O` (stereo not given), the TGI in test [1], in test [2], in test [17], in test [4], in test [5] and in [7] was above 100 µM throughout. The TGI in test [8], in [9], in test [10], in test [11], in [18] and in test [12] was above 100 µM throughout. Moreover, the TGI in test [14], in [15] and in test [16] was above 100 µM in each case.

`CSC(=S)CC(O)[C@@H]1CC2c3ccccc3C1c1ccccc12` (stereo not given in full): the TGI in test [1] was found to be 54.6 µM; in [2] it was 34.4 µM; in test [17], 22.2 µM; in test [4] it was 45.2 µM; in [5] it was 62.1 µM; in [6] it was 36.4 µM. The TGI came out at 48.5 µM in test [7]; 7.54 µM in [8]; 29.5 µM in test [9]; 10.9 µM in [10]; 45.4 µM in test [11]; 37.7 µM in test [18]. Besides, the TGI in [12] stood at 30.7 µM; in test [13], 27.5 µM; in test [14], 15 µM; in test [15], 20.9 µM; in test [16] it was 22.2 µM.

Source of the values: PubChem BioAssay (NCI).
